Measurements published in patent US20210179578A1, “OX1 ANTAGONISTS” (Heptares Therapeutics Limited, priority 2017, published 2021).

Tests used:
[1] = target: T1, human OX2 receptor (Homo sapiens, UniProt O43614); assay: [3H]-radioligand binding assay, OX2; design: made in house; host or cells: SF21 insect cells (baculovirus; P0 virus made in SF9); conditions: [3H]-radioligand binding, human OX2 membranes; read-out: pKi average OX2 (converted)
T1 sequence (O43614 1-444): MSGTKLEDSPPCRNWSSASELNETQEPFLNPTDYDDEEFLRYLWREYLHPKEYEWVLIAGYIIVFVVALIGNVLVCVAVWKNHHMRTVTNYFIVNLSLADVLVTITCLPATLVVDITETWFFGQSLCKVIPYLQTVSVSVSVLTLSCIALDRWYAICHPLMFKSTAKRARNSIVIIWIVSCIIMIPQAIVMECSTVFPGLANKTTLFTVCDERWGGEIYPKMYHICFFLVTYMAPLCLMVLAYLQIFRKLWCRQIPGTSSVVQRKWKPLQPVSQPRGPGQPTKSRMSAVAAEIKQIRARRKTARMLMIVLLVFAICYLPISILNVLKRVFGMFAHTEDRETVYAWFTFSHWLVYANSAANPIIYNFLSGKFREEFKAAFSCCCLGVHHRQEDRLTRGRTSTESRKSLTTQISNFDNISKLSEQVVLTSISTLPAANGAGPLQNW
How it was run: (§1)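 Membranes from baculovirus-infected SF21 cells expressing human OX1 (6.4 μg protein/well) or OX2 (1.4 μg/well) were incubated 90 min at rt in HEPES pH 7.4 saline buffer with a [3H]-benzothiadiazinone dioxide radioligand, then filtered and counted. NSB defined with 3.33 μM benzoxazolyl-diazepane methanone; Ki from IC50 by Cheng-Prusoff.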

[2] = target: T2, human OX1 receptor (Homo sapiens, UniProt O43613); assay: [3H]-radioligand binding assay, OX1; design: made in house; host or cells: SF21 insect cells (baculovirus; P0 virus made in SF9); conditions: [3H]-radioligand binding, human OX1 membranes; read-out: pKi average OX1 (converted)
T2 sequence (O43613 1-425): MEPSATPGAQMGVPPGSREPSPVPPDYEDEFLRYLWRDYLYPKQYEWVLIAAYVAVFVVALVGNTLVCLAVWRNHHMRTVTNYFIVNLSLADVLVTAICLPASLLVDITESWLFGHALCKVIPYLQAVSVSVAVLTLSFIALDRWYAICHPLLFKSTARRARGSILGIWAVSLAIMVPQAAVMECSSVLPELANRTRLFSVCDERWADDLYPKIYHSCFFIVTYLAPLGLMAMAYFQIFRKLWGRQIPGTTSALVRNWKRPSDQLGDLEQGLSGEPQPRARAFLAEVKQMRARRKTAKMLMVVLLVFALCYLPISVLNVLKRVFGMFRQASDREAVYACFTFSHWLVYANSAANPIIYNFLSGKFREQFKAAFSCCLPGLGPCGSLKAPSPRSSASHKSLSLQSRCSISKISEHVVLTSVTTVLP
How it was run: as §1

SMILES | Ki [1] [nM] | Ki [2] [nM]
Cc1ncc(N2CCc3c(F)cccc3N(Cc3c(F)cc(Br)cc3F)C2=O)cc1C(C)(F)F [Example 32, 1-(4-bromo-2,6-difluorobenzyl)-3-[5-(1,1-difluoroethyl)-6-methylpyridin-3-yl]-6-fluoro-1,3,4,5-tetrahydro-2H-1,3-benzodiazepin-2-one] | 50.1 | 0.631
COCc1cc(F)c(CN2C(=O)N(c3cnc(C)c(C(C)(F)F)c3)CCc3c(F)cccc32)c(F)c1 [Example 33, 3-[5-(1,1-difluoroethyl)-6-methylpyridin-3-yl]-1-[2,6-difluoro-4-(methoxymethyl)benzyl]-6-fluoro-1,3,4,5-tetrahydro-2H-1,3-benzodiazepin-2-one] | > 251 | 0.631
CCCc1cc(F)c(CN2C(=O)N(c3cnc(C)c(C(C)(F)F)c3)CCc3c(F)cccc32)c(F)c1 [Example 34, 3-[5-(1,1-difluoroethyl)-6-methylpyridin-3-yl]-1-(2,6-difluoro-4-propylbenzyl)-6-fluoro-1,3,4,5-tetrahydro-2H-1,3-benzodiazepin-2-one] | > 251 | 1.58

Further lines, results first:

Ki [1] [nM] | Ki [2] [nM] | SMILES
100 | 1.26 | Cc1cc(C)c(S(C)(=O)=O)cc1N1CCc2ccccc2N(Cc2c(F)cc(Br)cc2F)C1=O [Example 29, 1-(4-bromo-2,6-difluorobenzyl)-3-[2,4-dimethyl-5-(methylsulfonyl)phenyl]-1,3,4,5-tetrahydro-2H-1,3-benzodiazepin-2-one]
200 | 1.26 | Cc1cc(C)c(S(C)(=O)=O)cc1N1CCc2c(F)cccc2N(Cc2c(F)cc(Br)cc2F)C1=O [Example 31, 1-(4-bromo-2,6-difluorobenzyl)-3-[2,4-dimethyl-5-(methylsulfonyl)phenyl]-6-fluoro-1,3,4,5-tetrahydro-2H-1,3-benzodiazepin-2-one]
